Our source for the IC50 values is ChEMBL document CHEMBL4725288, “Modulation of TRPV4 and BKCa for treatment of brain diseases” (Bioorg Med Chem, 2020).

pIC50: −log10 of the molar value.

Assay [1] concerns the target Transient receptor potential cation channel subfamily V member 4 (Homo sapiens, UniProt Q9HBA0). The assay can be described thus: Antagonist activity at human TRPV4.
The nature of assay [2]: Inhibition of TNP-ADP binding to SERCA (unknown origin) by UV dual-wavelength spectrophotometer. Also on record: species or system Homo sapiens.

Transient receptor potential cation channel subfamily V member 4, sequence (Q9HBA0 whole entry): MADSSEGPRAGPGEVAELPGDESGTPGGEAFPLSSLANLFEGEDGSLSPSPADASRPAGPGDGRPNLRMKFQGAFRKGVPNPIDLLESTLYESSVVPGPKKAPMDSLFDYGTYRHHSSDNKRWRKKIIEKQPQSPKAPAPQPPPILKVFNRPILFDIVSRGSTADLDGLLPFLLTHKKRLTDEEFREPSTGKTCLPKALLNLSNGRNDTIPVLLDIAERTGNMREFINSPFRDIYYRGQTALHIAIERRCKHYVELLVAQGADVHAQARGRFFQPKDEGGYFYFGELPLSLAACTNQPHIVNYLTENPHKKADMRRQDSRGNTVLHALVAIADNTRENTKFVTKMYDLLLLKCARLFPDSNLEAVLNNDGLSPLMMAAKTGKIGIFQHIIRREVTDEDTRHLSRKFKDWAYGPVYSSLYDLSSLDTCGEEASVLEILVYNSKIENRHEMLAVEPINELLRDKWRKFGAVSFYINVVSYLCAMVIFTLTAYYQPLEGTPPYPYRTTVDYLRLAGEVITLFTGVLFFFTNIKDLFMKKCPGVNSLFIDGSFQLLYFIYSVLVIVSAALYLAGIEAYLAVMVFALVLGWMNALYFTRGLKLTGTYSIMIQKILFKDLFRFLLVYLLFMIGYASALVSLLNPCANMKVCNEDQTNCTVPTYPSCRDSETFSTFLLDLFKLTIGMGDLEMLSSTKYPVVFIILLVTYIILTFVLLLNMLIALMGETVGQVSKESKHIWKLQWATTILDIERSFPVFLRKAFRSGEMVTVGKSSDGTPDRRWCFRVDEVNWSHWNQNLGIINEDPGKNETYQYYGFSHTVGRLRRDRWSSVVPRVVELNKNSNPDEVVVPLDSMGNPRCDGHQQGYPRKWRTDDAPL

Usually pIC50 stands for the negative decadic logarithm of the IC50, by convention in mol/L. The molecule `Cc1c(C(=O)Nc2cccc(C(F)(F)F)c2)cc(-c2ccccc2)n1CCCN1CCOCC1` gave a pIC50 in assay [1] of 7.74.
Consider `CC(C)(O)[C@H]1O[C@H]2CC[C@@]3(C)[C@@](O)(CC[C@H]4Cc5c([nH]c6ccccc56)[C@@]43C)C2=CC1=O` [PAXILLINE], for which the pIC50 in assay [2] is 5.30.
